From ChEMBL document CHEMBL3044937, “Design, synthesis and acaricidal activity of novel strobilurin derivatives containing pyrimidine moieties” (2010)

Tests used:
Assay type in all cases: functional
Tetranychus cinnabarinus [1] = assay: Acaricidal activity against Tetranychus cinnabarinus (carmine spider mite) infected kidney bean leaf assessed as mortality at 10 mg/l measured after 48 hr in greenhouse conditions relative to control
Tetranychus cinnabarinus [2] = assay: Acaricidal activity against Tetranychus cinnabarinus (carmine spider mite) infected kidney bean leaf assessed as mortality at 40 mg/l measured after 48 hr in greenhouse conditions relative to control
Tetranychus cinnabarinus [3] = assay: Acaricidal activity against Tetranychus cinnabarinus (carmine spider mite) infected kidney bean leaf assessed as mortality at 600 mg/l measured after 48 hr in greenhouse conditions relative to control
Tetranychus cinnabarinus [4] = assay: Acaricidal activity against Tetranychus cinnabarinus (carmine spider mite) infected kidney bean plant assessed as mortality at 50 g a.i./ha measured after 14 days in field conditions relative to control; conditions: 336 h
Tetranychus cinnabarinus [5] = assay: Acaricidal activity against Tetranychus cinnabarinus (carmine spider mite) infected kidney bean plant assessed as mortality at 100 g a.i./ha measured after 14 days in field conditions relative to control; conditions: 336 h
Tetranychus cinnabarinus [6] = assay: Acaricidal activity against Tetranychus cinnabarinus (carmine spider mite) infected kidney bean plant assessed as mortality at 50 g a.i./ha measured after 3 days in field conditions relative to control; conditions: 72 h
Tetranychus cinnabarinus [7] = assay: Acaricidal activity against Tetranychus cinnabarinus (carmine spider mite) infected kidney bean plant assessed as mortality at 100 g a.i./ha measured after 3 days in field conditions relative to control; conditions: 72 h
Tetranychus cinnabarinus [8] = assay: Acaricidal activity against Tetranychus cinnabarinus (carmine spider mite) infected kidney bean plant assessed as mortality at 50 g a.i./ha measured after 21 days in field conditions relative to control; conditions: 504 h
Tetranychus cinnabarinus [9] = assay: Acaricidal activity against Tetranychus cinnabarinus (carmine spider mite) infected kidney bean plant assessed as mortality at 100 g a.i./ha measured after 21 days in field conditions relative to control; conditions: 504 h
Tetranychus cinnabarinus [10] = assay: Acaricidal activity against Tetranychus cinnabarinus (carmine spider mite) infected kidney bean plant assessed as mortality at 50 g a.i./ha measured after 7 days in field conditions relative to control; conditions: 168 h
Tetranychus cinnabarinus [11] = assay: Acaricidal activity against Tetranychus cinnabarinus (carmine spider mite) infected kidney bean plant assessed as mortality at 100 g a.i./ha measured after 7 days in field conditions relative to control; conditions: 168 h
Tetranychus cinnabarinus [12] = assay: Acaricidal activity against Tetranychus cinnabarinus (carmine spider mite) infected kidney bean plant assessed as mortality at 200 g a.i./ha measured after 3 days in field conditions relative to control; conditions: 72 h
Tetranychus cinnabarinus [13] = assay: Acaricidal activity against Tetranychus cinnabarinus (carmine spider mite) infected kidney bean plant assessed as mortality at 200 g a.i./ha measured after 21 days in field conditions relative to control; conditions: 504 h
Tetranychus cinnabarinus [14] = assay: Acaricidal activity against Tetranychus cinnabarinus (carmine spider mite) infected kidney bean plant assessed as mortality at 200 g a.i./ha measured after 7 days in field conditions relative to control; conditions: 168 h
Tetranychus cinnabarinus [15] = assay: Acaricidal activity against Tetranychus cinnabarinus (carmine spider mite) infected kidney bean plant assessed as mortality at 200 g a.i./ha measured after 14 days in field conditions relative to control; conditions: 336 h

CO/C=C(/C(=O)OC)c1ccccc1COc1cc(C(F)(F)F)nc(NC2CCCCC2)n1
mortality at 10 µg/mL (Tetranychus cinnabarinus [1]): 70%
mortality at 40 µg/mL (Tetranychus cinnabarinus [2]): 100%

CO/C=C(/C(=O)OC)c1ccccc1COc1cc(C(F)(F)F)nc(NCc2ccccc2)n1
mortality at 10 µg/mL (Tetranychus cinnabarinus [1]): 28%
mortality at 40 µg/mL (Tetranychus cinnabarinus [2]): 65%

CO/C=C(/C(=O)OC)c1ccccc1COc1cc(C(F)(F)F)nc(NCc2ccccc2Cl)n1
mortality at 10 µg/mL (Tetranychus cinnabarinus [1]): 32%
mortality at 40 µg/mL (Tetranychus cinnabarinus [2]): 81%

CO/C=C(/C(=O)OC)c1ccccc1COc1cc(C(F)(F)F)nc(N2CCOCC2)n1
mortality at 10 µg/mL (Tetranychus cinnabarinus [1]): 0%
mortality at 40 µg/mL (Tetranychus cinnabarinus [2]): 70%

CO/C=C(/C(=O)OC)c1ccccc1COc1cc(C)nc(Nc2ccccc2)n1
mortality at 10 µg/mL (Tetranychus cinnabarinus [1]): 0%
mortality at 40 µg/mL (Tetranychus cinnabarinus [2]): 0%
mortality at 600 µg/mL (Tetranychus cinnabarinus [3]): 90%

CO/C=C(/C(=O)OC)c1ccccc1COc1nc(Nc2ccccc2)nc(C)c1C
mortality at 10 µg/mL (Tetranychus cinnabarinus [1]): 0%
mortality at 40 µg/mL (Tetranychus cinnabarinus [2]): 0%
mortality at 600 µg/mL (Tetranychus cinnabarinus [3]): 0%

CO/C=C(/C(=O)OC)c1ccccc1COc1cc(C2CC2)nc(Nc2ccccc2)n1
mortality at 10 µg/mL (Tetranychus cinnabarinus [1]): 0%
mortality at 40 µg/mL (Tetranychus cinnabarinus [2]): 0%
mortality at 600 µg/mL (Tetranychus cinnabarinus [3]): 90%

CO/N=C(/C(=O)OC)c1ccccc1COc1cc(C(F)(F)F)nc(Nc2ccccc2)n1
mortality at 10 µg/mL (Tetranychus cinnabarinus [1]): 0%
mortality at 40 µg/mL (Tetranychus cinnabarinus [2]): 0%
mortality at 600 µg/mL (Tetranychus cinnabarinus [3]): 100%

COC(=O)N(OC)c1ccccc1COc1cc(C(F)(F)F)nc(Nc2ccccc2)n1
mortality at 10 µg/mL (Tetranychus cinnabarinus [1]): 0%
mortality at 40 µg/mL (Tetranychus cinnabarinus [2]): 0%
mortality at 600 µg/mL (Tetranychus cinnabarinus [3]): 0%

CNC(=O)/C(=N/OC)c1ccccc1COc1cc(C(F)(F)F)nc(Nc2ccccc2)n1
mortality at 10 µg/mL (Tetranychus cinnabarinus [1]): 0%
mortality at 40 µg/mL (Tetranychus cinnabarinus [2]): 0%
mortality at 600 µg/mL (Tetranychus cinnabarinus [3]): 0%

CNC(=O)N(OC)c1ccccc1COc1cc(C(F)(F)F)nc(Nc2ccccc2)n1
mortality at 10 µg/mL (Tetranychus cinnabarinus [1]): 0%
mortality at 40 µg/mL (Tetranychus cinnabarinus [2]): 0%
mortality at 600 µg/mL (Tetranychus cinnabarinus [3]): 0%

CNc1nc(OCc2ccccc2/C(=C\OC)C(=O)OC)cc(C(F)(F)F)n1
mortality at 10 µg/mL (Tetranychus cinnabarinus [1]): 0%
mortality at 40 µg/mL (Tetranychus cinnabarinus [2]): 0%

CCNc1nc(OCc2ccccc2/C(=C\OC)C(=O)OC)cc(C(F)(F)F)n1
mortality at 10 µg/mL (Tetranychus cinnabarinus [1]): 0%
mortality at 40 µg/mL (Tetranychus cinnabarinus [2]): 0%

CO/C=C(/C(=O)OC)c1ccccc1COc1cc(C(F)(F)F)nc(N(C)C)n1
mortality at 10 µg/mL (Tetranychus cinnabarinus [1]): 0%
mortality at 40 µg/mL (Tetranychus cinnabarinus [2]): 0%

CCN(CC)c1nc(OCc2ccccc2/C(=C\OC)C(=O)OC)cc(C(F)(F)F)n1
mortality at 10 µg/mL (Tetranychus cinnabarinus [1]): 21%
mortality at 40 µg/mL (Tetranychus cinnabarinus [2]): 65%

CO/C=C(/C(=O)OC)c1ccccc1COc1cc(C(F)(F)F)nc(NC(C)C)n1
mortality at 10 µg/mL (Tetranychus cinnabarinus [1]): 64%
mortality at 40 µg/mL (Tetranychus cinnabarinus [2]): 95%

CO/C=C(/C(=O)OC)c1ccccc1COc1cc(C(F)(F)F)nc(NC2CC2)n1
mortality at 10 µg/mL (Tetranychus cinnabarinus [1]): 0%
mortality at 40 µg/mL (Tetranychus cinnabarinus [2]): 0%

CO/C=C(/C(=O)OC)c1ccccc1COc1cc(C(F)(F)F)nc(N2CCCCC2)n1
mortality at 10 µg/mL (Tetranychus cinnabarinus [1]): 0%
mortality at 40 µg/mL (Tetranychus cinnabarinus [2]): 0%

CO/C=C(/C(=O)OC)c1ccccc1COc1cc(C(F)(F)F)nc(OC(C)C)n1
mortality at 10 µg/mL (Tetranychus cinnabarinus [1]): 95%
mortality at 50 g/ha (Tetranychus cinnabarinus [4]): 93.2%
mortality at 100 g/ha (Tetranychus cinnabarinus [5]): 90.4%
mortality at 50 g/ha (Tetranychus cinnabarinus [6]): 100%
mortality at 100 g/ha (Tetranychus cinnabarinus [7]): 100%
mortality at 50 g/ha (Tetranychus cinnabarinus [8]): 98.2%
mortality at 100 g/ha (Tetranychus cinnabarinus [9]): 97.9%
mortality at 50 g/ha (Tetranychus cinnabarinus [10]): 77.6%
mortality at 100 g/ha (Tetranychus cinnabarinus [11]): 88%
mortality at 40 µg/mL (Tetranychus cinnabarinus [2]): 100%
mortality at 600 µg/mL (Tetranychus cinnabarinus [3]): 100%

CO/C=C(/C(=O)OC)c1ccccc1COc1cc(C(F)(F)F)nc(Nc2ccccc2)n1
mortality at 10 µg/mL (Tetranychus cinnabarinus [1]): 85%
mortality at 50 g/ha (Tetranychus cinnabarinus [4]): 87.2%
mortality at 100 g/ha (Tetranychus cinnabarinus [5]): 91.8%
mortality at 50 g/ha (Tetranychus cinnabarinus [6]): 62.3%
mortality at 200 g/ha (Tetranychus cinnabarinus [12]): 92.2%
mortality at 100 g/ha (Tetranychus cinnabarinus [7]): 78.3%
mortality at 50 g/ha (Tetranychus cinnabarinus [8]): 57.5%
mortality at 100 g/ha (Tetranychus cinnabarinus [9]): 94.9%
mortality at 50 g/ha (Tetranychus cinnabarinus [10]): 65.3%
mortality at 100 g/ha (Tetranychus cinnabarinus [11]): 53.1%
mortality at 200 g/ha (Tetranychus cinnabarinus [13]): 100%
mortality at 40 µg/mL (Tetranychus cinnabarinus [2]): 100%
mortality at 200 g/ha (Tetranychus cinnabarinus [14]): 96.4%
mortality at 200 g/ha (Tetranychus cinnabarinus [15]): 100%
mortality at 600 µg/mL (Tetranychus cinnabarinus [3]): 100%
